Earlier results on one substance are cited in US20240100062A1, “Methods of Treatment With an Iboga Alkaloid” (priority 2022, published 2024).

The test system of data set [1] is N-methyl-D-aspartate, kappa and mu opioid, sigma-1 and -2, nicotinic acetylcholine, serotonin transporter, and dopamine transporter. Conditions: cited from earlier work.
For data set [2] the following is noted: in vivo; cited from earlier work.

In the case of Noribogaine, the “Affinity for neurotransmitter receptors” value in data set [1] was “moderate-to-weak affinity”. Further, the half-life (in general, how long it takes for the measured level to halve) in data set [2] was 28 to 49 h.
